According to ChEMBL document CHEMBL2424622, “Development of amino-pyrimidine inhibitors of c-Jun N-terminal kinase (JNK): kinase profiling guided optimization of a 1,2,3-benzotriazole lead” (Bioorg Med Chem Lett, 2013):

Tests used:
[1] = system: T1, Receptor-type tyrosine-protein kinase FLT3 (Homo sapiens), P36888 [D835Y]; test: Competitive binding affinity to FLT3 D835Y mutant (unknown origin) at 10 uM in presence of ATP relative to control
T1 sequence (whole entry): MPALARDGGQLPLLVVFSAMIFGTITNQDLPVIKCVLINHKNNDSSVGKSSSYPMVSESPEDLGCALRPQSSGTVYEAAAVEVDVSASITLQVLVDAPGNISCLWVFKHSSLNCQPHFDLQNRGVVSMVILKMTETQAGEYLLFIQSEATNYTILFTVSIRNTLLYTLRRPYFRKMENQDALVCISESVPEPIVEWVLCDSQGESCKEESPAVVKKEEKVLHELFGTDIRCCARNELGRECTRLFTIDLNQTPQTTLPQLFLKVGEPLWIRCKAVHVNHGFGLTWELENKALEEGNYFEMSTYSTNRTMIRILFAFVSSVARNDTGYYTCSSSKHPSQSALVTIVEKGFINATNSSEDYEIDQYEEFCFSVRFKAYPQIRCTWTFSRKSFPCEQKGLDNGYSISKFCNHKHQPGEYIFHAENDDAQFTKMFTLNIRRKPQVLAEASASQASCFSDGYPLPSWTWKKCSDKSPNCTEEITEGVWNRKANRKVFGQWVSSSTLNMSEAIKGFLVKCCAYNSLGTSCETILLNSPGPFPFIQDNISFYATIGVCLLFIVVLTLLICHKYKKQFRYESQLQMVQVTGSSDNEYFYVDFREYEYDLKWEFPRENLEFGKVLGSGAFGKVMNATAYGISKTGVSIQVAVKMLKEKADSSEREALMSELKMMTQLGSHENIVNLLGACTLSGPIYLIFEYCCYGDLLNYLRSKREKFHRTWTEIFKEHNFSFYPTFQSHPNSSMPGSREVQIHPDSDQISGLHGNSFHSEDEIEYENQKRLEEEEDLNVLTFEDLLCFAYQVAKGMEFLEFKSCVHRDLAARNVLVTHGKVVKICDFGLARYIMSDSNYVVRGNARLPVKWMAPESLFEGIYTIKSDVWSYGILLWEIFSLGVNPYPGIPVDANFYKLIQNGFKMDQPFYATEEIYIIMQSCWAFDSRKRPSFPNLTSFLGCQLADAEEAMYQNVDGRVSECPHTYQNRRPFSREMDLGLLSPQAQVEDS

[2] = molecular target: Mitogen-activated protein kinase kinase kinase kinase 4 (Homo sapiens) (UniProt O95819); test: Competitive binding affinity to MAP4K4 (unknown origin) at 10 uM in presence of ATP relative to control
[3] = molecular target: Serine/threonine-protein kinase 10 (Homo sapiens) (UniProt O94804); test: Competitive binding affinity to LOK (unknown origin) at 10 uM in presence of ATP relative to control
[4] = molecular target: NT-3 growth factor receptor (Homo sapiens) (UniProt Q16288); test: Competitive binding affinity to TRKC (unknown origin) at 10 uM in presence of ATP relative to control
[5] = molecular target: T2, Dual specificity mitogen-activated protein kinase kinase 3 (Homo sapiens) (UniProt P46734); test: Competitive binding affinity to MEK3 (unknown origin) at 10 uM in presence of ATP relative to control
T2 sequence (whole entry): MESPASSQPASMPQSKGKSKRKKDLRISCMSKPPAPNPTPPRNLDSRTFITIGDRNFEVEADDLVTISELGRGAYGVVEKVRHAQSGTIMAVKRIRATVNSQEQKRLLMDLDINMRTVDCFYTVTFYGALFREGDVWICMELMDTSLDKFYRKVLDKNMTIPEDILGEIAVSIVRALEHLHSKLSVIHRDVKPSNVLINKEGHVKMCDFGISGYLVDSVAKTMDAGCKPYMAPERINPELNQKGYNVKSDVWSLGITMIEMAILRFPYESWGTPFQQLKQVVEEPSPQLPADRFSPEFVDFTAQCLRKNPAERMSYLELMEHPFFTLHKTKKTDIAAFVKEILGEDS

[6] = molecular target: Tyrosine-protein kinase receptor UFO (Homo sapiens) (UniProt P30530); test: Competitive binding affinity to AXL (unknown origin) at 10 uM in presence of ATP relative to control
[7] = molecular target: T3, Serine/threonine-protein kinase RIO3 (Homo sapiens) (UniProt O14730); test: Competitive binding affinity to RIOK3 (unknown origin) at 10 uM in presence of ATP relative to control
T3 sequence (whole entry): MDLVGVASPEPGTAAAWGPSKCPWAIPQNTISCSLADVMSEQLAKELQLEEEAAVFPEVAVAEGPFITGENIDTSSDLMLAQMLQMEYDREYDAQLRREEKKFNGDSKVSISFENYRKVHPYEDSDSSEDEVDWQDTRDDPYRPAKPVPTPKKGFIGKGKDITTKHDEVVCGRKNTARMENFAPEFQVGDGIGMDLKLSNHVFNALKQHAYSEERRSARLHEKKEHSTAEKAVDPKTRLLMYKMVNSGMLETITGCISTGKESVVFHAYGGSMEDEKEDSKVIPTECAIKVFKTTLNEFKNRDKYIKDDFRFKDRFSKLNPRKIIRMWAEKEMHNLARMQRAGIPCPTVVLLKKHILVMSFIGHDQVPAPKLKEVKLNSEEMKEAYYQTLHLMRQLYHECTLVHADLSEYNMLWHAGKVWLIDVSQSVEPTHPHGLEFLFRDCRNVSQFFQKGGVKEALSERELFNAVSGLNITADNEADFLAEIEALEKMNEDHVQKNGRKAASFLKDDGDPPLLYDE

[8] = molecular target: Vascular endothelial growth factor receptor 1 (Homo sapiens) (UniProt P17948); test: Competitive binding affinity to FLT1 (unknown origin) at 10 uM in presence of ATP relative to control
Sequence of Vascular endothelial growth factor receptor 1 (Homo sapiens) (P17948 whole entry): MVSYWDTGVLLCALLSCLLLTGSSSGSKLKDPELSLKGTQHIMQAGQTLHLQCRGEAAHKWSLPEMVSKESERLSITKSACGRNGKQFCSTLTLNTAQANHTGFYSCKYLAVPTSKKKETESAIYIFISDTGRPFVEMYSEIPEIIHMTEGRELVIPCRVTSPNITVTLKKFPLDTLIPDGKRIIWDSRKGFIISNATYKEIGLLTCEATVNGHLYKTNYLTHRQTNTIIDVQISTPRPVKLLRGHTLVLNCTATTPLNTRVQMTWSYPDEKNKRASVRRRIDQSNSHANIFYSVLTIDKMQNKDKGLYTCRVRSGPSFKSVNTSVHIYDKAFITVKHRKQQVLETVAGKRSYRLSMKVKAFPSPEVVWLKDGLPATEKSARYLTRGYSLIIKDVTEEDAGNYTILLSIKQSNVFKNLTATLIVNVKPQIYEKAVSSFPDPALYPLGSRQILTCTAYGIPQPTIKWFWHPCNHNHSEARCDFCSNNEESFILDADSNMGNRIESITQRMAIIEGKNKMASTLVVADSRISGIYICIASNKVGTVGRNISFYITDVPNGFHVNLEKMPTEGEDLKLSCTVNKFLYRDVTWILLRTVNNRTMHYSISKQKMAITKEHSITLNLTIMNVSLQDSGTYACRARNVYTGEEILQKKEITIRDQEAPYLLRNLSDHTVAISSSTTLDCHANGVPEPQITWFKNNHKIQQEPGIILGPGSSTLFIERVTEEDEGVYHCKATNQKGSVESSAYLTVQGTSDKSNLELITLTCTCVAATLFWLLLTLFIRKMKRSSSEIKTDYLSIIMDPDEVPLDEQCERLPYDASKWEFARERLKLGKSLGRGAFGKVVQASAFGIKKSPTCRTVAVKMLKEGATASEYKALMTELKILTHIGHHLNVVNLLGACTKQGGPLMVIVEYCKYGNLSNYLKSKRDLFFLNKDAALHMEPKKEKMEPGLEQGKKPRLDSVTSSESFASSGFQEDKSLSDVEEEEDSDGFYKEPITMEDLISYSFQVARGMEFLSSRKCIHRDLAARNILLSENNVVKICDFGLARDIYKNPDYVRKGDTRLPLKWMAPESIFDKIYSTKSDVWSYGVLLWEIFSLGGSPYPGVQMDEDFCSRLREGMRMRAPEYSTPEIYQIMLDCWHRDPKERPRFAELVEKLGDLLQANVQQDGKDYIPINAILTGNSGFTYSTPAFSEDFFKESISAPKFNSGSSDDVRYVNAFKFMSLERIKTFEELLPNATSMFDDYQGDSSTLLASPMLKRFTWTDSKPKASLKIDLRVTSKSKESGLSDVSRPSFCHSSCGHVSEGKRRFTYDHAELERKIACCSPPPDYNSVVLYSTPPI

Sequence of NT-3 growth factor receptor (Homo sapiens) (Q16288 32-839 limits assumed): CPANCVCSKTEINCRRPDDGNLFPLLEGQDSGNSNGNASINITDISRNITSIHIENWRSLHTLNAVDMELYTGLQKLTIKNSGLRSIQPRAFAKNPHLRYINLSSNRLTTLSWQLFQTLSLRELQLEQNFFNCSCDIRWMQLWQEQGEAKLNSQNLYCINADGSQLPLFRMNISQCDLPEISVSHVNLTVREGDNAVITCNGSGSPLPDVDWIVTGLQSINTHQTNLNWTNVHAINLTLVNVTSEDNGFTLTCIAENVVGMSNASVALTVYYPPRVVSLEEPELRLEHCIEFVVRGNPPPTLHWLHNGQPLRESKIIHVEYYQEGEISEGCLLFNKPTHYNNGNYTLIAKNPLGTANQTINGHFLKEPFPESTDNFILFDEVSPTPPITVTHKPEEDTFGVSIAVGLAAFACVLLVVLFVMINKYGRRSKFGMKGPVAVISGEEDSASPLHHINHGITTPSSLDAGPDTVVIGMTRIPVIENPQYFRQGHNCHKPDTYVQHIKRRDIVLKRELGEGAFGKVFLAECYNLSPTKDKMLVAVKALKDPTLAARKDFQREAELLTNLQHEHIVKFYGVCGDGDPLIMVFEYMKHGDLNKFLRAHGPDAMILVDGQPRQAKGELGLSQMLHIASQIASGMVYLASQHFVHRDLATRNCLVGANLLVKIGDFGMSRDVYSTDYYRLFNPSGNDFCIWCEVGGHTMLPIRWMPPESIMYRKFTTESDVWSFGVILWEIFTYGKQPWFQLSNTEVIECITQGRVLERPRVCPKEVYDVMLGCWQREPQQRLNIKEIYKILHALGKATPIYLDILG
Sequence of Mitogen-activated protein kinase kinase kinase kinase 4 (Homo sapiens) (O95819 2-1239 limits assumed): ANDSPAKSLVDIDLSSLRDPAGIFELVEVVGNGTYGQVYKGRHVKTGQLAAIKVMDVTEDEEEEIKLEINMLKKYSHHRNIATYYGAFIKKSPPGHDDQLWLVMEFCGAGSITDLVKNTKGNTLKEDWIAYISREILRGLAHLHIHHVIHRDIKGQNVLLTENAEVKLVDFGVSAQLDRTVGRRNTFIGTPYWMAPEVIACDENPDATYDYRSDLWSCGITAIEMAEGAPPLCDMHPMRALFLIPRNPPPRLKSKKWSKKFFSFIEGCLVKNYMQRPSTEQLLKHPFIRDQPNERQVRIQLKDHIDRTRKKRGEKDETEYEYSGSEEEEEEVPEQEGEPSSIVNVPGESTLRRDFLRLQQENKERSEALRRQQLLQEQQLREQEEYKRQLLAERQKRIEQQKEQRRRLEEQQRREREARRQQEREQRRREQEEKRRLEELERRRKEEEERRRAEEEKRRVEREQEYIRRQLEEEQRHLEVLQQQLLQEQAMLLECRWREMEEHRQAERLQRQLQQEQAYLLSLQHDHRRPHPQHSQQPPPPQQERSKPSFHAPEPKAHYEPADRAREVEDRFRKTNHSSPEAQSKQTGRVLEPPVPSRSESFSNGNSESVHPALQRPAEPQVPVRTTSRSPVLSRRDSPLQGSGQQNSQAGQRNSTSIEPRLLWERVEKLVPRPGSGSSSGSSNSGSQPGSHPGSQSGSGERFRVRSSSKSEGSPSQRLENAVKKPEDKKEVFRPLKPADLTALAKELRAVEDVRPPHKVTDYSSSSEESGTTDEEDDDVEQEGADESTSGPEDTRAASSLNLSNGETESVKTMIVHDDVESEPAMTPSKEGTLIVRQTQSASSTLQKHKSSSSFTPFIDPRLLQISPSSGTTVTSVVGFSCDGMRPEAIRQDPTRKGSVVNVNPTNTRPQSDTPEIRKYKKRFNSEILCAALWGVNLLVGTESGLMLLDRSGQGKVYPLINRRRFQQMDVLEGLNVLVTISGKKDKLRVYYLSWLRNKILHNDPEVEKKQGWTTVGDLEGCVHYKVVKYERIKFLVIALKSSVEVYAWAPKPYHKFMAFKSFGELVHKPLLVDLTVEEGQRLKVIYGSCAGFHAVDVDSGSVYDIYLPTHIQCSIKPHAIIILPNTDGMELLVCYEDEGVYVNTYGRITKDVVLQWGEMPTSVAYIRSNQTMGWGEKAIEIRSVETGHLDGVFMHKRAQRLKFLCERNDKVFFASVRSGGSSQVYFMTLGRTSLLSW
Sequence of Tyrosine-protein kinase receptor UFO (Homo sapiens) (P30530 whole entry): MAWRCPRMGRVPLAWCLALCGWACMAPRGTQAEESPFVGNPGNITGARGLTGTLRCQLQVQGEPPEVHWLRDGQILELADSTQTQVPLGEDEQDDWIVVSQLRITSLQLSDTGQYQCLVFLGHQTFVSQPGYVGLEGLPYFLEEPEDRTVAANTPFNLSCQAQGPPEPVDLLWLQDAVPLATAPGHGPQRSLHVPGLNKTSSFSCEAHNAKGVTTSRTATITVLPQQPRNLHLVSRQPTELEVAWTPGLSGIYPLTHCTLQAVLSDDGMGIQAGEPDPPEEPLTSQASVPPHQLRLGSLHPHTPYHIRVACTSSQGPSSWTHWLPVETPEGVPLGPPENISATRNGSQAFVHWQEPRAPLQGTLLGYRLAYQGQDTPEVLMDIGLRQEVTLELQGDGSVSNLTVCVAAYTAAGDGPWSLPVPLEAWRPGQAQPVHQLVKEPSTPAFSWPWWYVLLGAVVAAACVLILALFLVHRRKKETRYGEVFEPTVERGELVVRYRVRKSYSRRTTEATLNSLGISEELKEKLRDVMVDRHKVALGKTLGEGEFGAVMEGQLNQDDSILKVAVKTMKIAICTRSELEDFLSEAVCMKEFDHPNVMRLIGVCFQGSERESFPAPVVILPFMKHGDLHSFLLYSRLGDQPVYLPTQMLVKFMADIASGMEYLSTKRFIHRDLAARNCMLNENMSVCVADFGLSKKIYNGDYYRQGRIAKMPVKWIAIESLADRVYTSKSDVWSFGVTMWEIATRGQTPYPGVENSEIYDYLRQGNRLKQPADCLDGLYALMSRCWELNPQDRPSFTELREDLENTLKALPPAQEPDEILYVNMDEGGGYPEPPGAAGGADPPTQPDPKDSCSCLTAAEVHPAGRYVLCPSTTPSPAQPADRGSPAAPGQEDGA

O[C@H]1CC[C@H](Nc2nccc(-n3ccc4ccccc43)n2)CC1
inhibition [1]: < 50%
inhibition [2]: < 50%
inhibition [3]: < 50%
inhibition [4]: < 50%
inhibition [5]: 93%
inhibition [6]: < 50%
inhibition [7]: < 50%
inhibition [8]: < 50%

O[C@H]1CC[C@H](Nc2nccc(-n3nnc4ccccc43)n2)CC1
inhibition [1]: 99%
inhibition [2]: < 50%
inhibition [3]: < 50%
inhibition [4]: < 50%
inhibition [5]: 97%
inhibition [6]: < 50%
inhibition [7]: < 50%
inhibition [8]: 82%

O[C@H]1CC[C@H](Nc2nccc(-n3ncc4ccccc43)n2)CC1
inhibition [1]: 100%
inhibition [2]: 64%
inhibition [3]: < 50%
inhibition [4]: < 50%
inhibition [5]: 95%
inhibition [6]: 93%
inhibition [7]: < 50%
inhibition [8]: 71%

O[C@H]1CC[C@H](Nc2nccc(-c3n[nH]c4ccccc34)n2)CC1
inhibition [1]: 100%
inhibition [2]: 95%
inhibition [3]: 88%
inhibition [4]: 99%
inhibition [6]: 100%
inhibition [8]: 95%
